Like-named read-outs stand apart in the source and are kept apart here.
Legend:
[1] = test system: HaCaT noncancerous keratinocyte cell line; assay: MTT cell viability assay, 72 h, HaCaT; type: cell-based; conditions: for IC50: Homo sapiens, HaCaT, MTT assay, 72 h incubation, mean ± SD
Experimental: (§1) Compounds 7–36 and 47–54 were tested regarding their effect on growth of three human cancer cell lines: colon cancer HCT-116, breast cancer MCF-7 and cervical cancer HeLa, as well as on noncancerous keratinocyte cell line HaCaT. Cell viability was measured with MTT assay after 72 h of incubation with tested compound in five concentration 1–100 μM. The MTT test enables us to quantify the living cells by measuring the activity of mitochondrial enzymes, enables reducing tetrazolium dye MTT to purple formazan. In this manner, IC50—molar concentration [µM] that inhibits 50% net cell growth—was determined (Table 1 and Table 2).
(§2) All chemicals, if not stated otherwise, were obtained from Sigma-Aldrich (St. Louis, MO, USA). The MCF-7, HeLa and HaCaT cell lines were purchased from Cell Lines Services (Eppelheim, Germany), the HCT-116 cell line were obtained from ATCC (ATCC-No: CCL-247). Cells were cultured in Dulbecco’s modified Eagle’s medium (DMEM) supplemented with 10% fetal bovine serum, 2 mM glutamine, 100 units/mL penicillin, and 100 μg/mL streptomycin. Cultures were maintained in a humidified atmosphere with 5% CO2 at 37 °C in an incubator (HeraCell, Heraeus, Langenselbold, Germany). Cell viability was determined using the MTT [3-(4,5-dimethylthiazol-2-yl)-2,5-diphenyl-tetrazolium bromide] assay. Stock solutions of the studied compounds were obtained in 100% DMSO. […] Cells were seeded in 96-well plates at a density of 5 × 10^3 cells/well and treated for 72 h with the examined compounds in the concentration range 1–100 μM (1, 10, 25, 50 and 100 μM). Following treatment, MTT (0.5 mg/mL) was added to the medium and cells were further incubated for 2 h at 37 °C. Cells were lysed with DMSO and the absorbance of the formazan solution was measured at 550 nm with a plate reader Victor 1420 multilabel counter, (PerkinElmer, Inc. Waltham, MA USA). […] The experiment was performed in triplicate. Values are expressed as the mean ± SD of at least three independent experiments

[2] = test system: HaCaT noncancerous keratinocyte cell line; design: method as in PMID 28364658; conditions: MTT assay, 72 h incubation; compounds marked [18] ref 18; cited from earlier work
[3] = test system: MCF-7 cells (breast cancer); assay: MTT cell viability assay, 72 h, MCF-7; type: cell-based, human; conditions: Homo sapiens, MCF7, 72 h, MTT assay, 72 h incubation, mean ± SD
Experimental: as §1, §2

[4] = test system: HeLa cells (cervical cancer); assay: MTT cell viability assay, 72 h, HeLa; type: cell-based, human; conditions: Homo sapiens, HeLa, 72 h, MTT assay, 72 h incubation, mean ± SD
Experimental: as §1, §2

[5] = test system: HCT-116 cells (colon cancer); assay: MTT cell viability assay, 72 h, HCT-116; type: cell-based, human; conditions: for IC50: MTT assay, 72 h incubation, mean ± SD
Experimental: as §1, §2

Row | Compound | IC50 [3] [µM] | IC50 [4] [µM] | IC50 ([5]; Homo sapiens, HCT-116, 72 h) [µM] | IC50 [1] [µM] | also measured
1 | NS(=O)(=O)c1cc(-c2nnc(/C=C/c3ccccc3)o2)c(Cl)cc1SCc1ccccc1 [Compound 8] | – | – | – | – | activity against HaCaT compared with cancer lines ([1]; in words): at the same level as against cancer lines; IC50 [2]: 20 ± 1 µM
2 | NS(=O)(=O)c1cc(-c2nnc(/C=C/c3c(Cl)cccc3Cl)o2)c(Cl)cc1SCc1ccccc1 [Compound 14] | – | – | – | – | IC50 [2]: 160 ± 2 µM
3 | NS(=O)(=O)c1cc(-c2nnc(/C=C/c3ccc(Br)cc3)o2)c(Cl)cc1SCc1ccccc1 [Compound 16] | – | – | – | – | IC50 [2]: 31 ± 1 µM
4 | NS(=O)(=O)c1cc(-c2nnc(/C=C/c3ccccn3)o2)c(Cl)cc1SCc1ccccc1 [Compound 28, (E)-2-(Benzylthio)-4-chloro-5-(5-(2-(pyridin-2-yl)vinyl)-1,3,4-oxadiazol-2-yl)benzenesulfonamide] | 115 ± 3 | 130 ± 6 | 25 ± 1 | 140 ± 10 | melting point: 254 to 257 °C (dec.)
5 | NS(=O)(=O)c1cc(-c2nnc(/C=C/c3ccc[nH]3)o2)c(Cl)cc1Cl [Compound 36, (E)-5-(5-(2-(1H-Pyrrol-2-yl)vinyl)-1,3,4-oxadiazol-2-yl)-2,4-dichlorobenzenesulfonamide] | 40 ± 1 | 73 ± 3 | 39 ± 1 | 98 ± 4 | –

More lines, main results first:

Row | IC50 [3] [µM] | IC50 [4] [µM] | IC50 ([5]; Homo sapiens, HCT-116, 72 h) [µM] | Compound | IC50 [1] [µM] | also measured
6 | 55 ± 3 | 58 ± 2 | 17 ± 1 | NS(=O)(=O)c1cc(-c2nnc(/C=C/c3ccc([N+](=O)[O-])s3)o2)c(Cl)cc1SCc1ccccc1 [Compound 32, (E)-2-(Benzylthio)-4-chloro-5-(5-(2-(5-nitrothiophen-2-yl)vinyl)-1,3,4-oxadiazol-2-yl)benzenesulfonamide] | 57 ± 1 | –
7 | 170 ± 9 | 210 ± 8 | 33 ± 1 | NS(=O)(=O)c1cc(-c2nnc(/C=C/c3ccco3)o2)c(Cl)cc1Cl [Compound 33, (E)-2,4-Dichloro-5-(5-(2-(furan-2-yl)vinyl)-1,3,4-oxadiazol-2-yl)benzenesulfonamide] | 200 ± 12 | –
8 | 62 ± 1 | 85 ± 3 | 27.8 ± 0.3 | NS(=O)(=O)c1cc(-c2nnc(/C=C/c3ccco3)o2)c(Cl)cc1SCc1ccccc1 [Compound 34, (E)-2-(Benzylthio)-4-chloro-5-(5-(2-(furan-2-yl)vinyl)-1,3,4-oxadiazol-2-yl)benzenesulfonamide] | 91 ± 3 | –
9 | 150 ± 8 | 69 ± 3 | 4 | NS(=O)(=O)c1cc(-c2nnc(/C=C/c3ccc([N+](=O)[O-])o3)o2)c(Cl)cc1SCc1ccccc1 [Compound 35, (E)-2-(Benzylthio)-4-chloro-5-(5-(2-(5-nitrofuran-2-yl)vinyl)-1,3,4-oxadiazol-2-yl)benzenesulfonamide] | 87 ± 4 | selectivity index SI (IC50 for HaCaT cell line/IC50 for cancerous cell line) ([1]; cancer line not given, active derivatives (IC50 for cancer line ≤ 25 µM)): 22; IC50 [5]: 4.1 ± 0.2 µM; times more active against HCT-116 than HaCaT ([5]; selectivity HCT-116 vs HaCaT): 22 times; times more active against HCT-116 than HeLa ([5]; selectivity HCT-116 vs HeLa): 17 times; times more active against HCT-116 than MCF-7 ([5]; selectivity HCT-116 vs MCF-7): 37 times
10 | 76 ± 4 | 25 ± 3 | 105 ± 5 | NS(=O)(=O)c1ccc(-c2nnc(/C=C/c3ccc(Cl)cc3)o2)cc1 [Compound 48, (E)-4-(5-(4-chlorostyryl)-1,3,4-oxadiazol-2-yl)benzenesulfonamide] | 95 ± 4 | –
11 | 75 ± 4 | 99 ± 3 | 32 ± 2 | N#Cc1ccc(/C=C/c2nnc(-c3ccc(S(N)(=O)=O)cc3)o2)cc1 [Compound 49, (E)-4-(5-(4-Cyanostyryl)-1,3,4-oxadiazol-2-yl)benzenesulfonamide] | 98 ± 4 | –
